{
  "source": "paper PMC6906431",
  "about": "“Selective small molecule PARG inhibitor causes replication fork stalling and cancer cell death” (Nature Communications, 2019)",
  "key": {"hPARP1": {"molecular_target": "hPARP1 (Homo sapiens, UniProt P09874)", "sequence (P09874 whole entry)": "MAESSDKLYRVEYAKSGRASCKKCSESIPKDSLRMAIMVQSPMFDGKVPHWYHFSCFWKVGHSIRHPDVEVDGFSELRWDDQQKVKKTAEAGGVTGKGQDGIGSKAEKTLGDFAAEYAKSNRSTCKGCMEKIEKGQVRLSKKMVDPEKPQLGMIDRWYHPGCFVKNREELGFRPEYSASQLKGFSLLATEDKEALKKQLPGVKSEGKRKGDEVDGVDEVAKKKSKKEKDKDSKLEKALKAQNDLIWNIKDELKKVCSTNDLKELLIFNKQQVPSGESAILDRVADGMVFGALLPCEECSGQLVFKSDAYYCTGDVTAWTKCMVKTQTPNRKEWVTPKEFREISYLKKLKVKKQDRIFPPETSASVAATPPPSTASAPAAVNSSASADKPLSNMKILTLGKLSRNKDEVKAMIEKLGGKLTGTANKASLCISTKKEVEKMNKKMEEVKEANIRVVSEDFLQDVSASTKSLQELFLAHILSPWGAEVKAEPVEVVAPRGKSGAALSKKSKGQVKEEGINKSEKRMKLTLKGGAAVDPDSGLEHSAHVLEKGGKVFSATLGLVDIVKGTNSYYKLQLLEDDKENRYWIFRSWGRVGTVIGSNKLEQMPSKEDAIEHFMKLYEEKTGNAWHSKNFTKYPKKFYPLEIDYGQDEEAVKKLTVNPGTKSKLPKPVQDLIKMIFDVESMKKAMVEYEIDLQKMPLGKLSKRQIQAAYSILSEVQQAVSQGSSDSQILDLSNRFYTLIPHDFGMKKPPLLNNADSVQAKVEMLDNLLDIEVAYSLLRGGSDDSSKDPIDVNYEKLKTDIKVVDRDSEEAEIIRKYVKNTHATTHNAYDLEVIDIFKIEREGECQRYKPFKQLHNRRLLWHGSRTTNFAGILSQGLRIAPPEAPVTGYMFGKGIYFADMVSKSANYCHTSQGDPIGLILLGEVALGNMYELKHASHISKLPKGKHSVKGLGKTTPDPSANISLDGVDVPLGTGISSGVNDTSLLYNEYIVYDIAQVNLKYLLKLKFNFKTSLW", "assay": "In vitro PARP1 auto-PARylation", "settings": "inhibitor 25 – 100 µM; 25 µM NAD+"}, "PC3 cells": {"tested_on": "PC3 cells", "assay": "Immunoblot of HMW/LMW PARP1 in chromatin fractions", "type": "cell-based, human", "settings": "normalized to DMSO = 1, IR 7 Gy, replicates", "description": "To identify suitable cell lines to test PARGi, we evaluated PARG protein expression patterns on a panel of prototypic cancer cell lines. Cells were fractionated into cytoplasmic, nuclear and chromatin, and then PARG expression and localization were evaluated using an anti-PARG antibody (Fig. 4a). A varying level of PARG was detected in three cellular compartments. In prostate adenocarcinoma (PC3) and breast mammary epithelial (MCF-7) cells, PARG level was the highest in the cytoplasm, followed by the nucleus, with the lowest seen in the chromatin fraction. […] The PC3 cell line, with one of the highest levels of PARG expression, was selected for our initial PARGi testing. PC3 cells were treated with either DMSO or JA2131 for 2 h, then exposed to 7 Gy of IR and allowed to recover for a designated time period before harvesting and cell fractionation. Chromatin fractions of the cell lysates were analyzed by immunoblotting with PARP1 specific antibody (Fig. 4b), and the PARylation states of PARP1 were monitored as a marker for PARG inhibition. […] In these cells, PARylated PARP1 in response to PARG inhibition appeared as a discrete HMW (DHMW) proteins with limited smearing, as observed previously. […] To assess whether DHMW was due to PARylation and not any other post-translational modifications, chromatin fractions of the PARGi-treated PC3 cell-lysates were treated with purified PARG, followed by anti-PARP1 western blotting. This led to the restoration of LMW PARP1, indicating PARylation was indeed causing the DHMW (Fig. 4c, d). Thus, a dynamic equilibrium between DHMW and LMW nuclear PARP1 exists in cells, and PARGi shifts this equilibrium towards DHMW.\nFig. 4 JA2131 induces hyperPARylation of PARP1. a Subcellular PARG protein expression patterns in cultured cells. […] Chromatin bound cell-extracts were analyzed with anti-PARP1 antibody (upper panel) followed by probing with total Histone H2AX (t-H2AX, lower panel) as the loading control. c DMSO or 2131-treated PC3 cells were irradiated and recovered for 2 h as above, chromatin fractions were then incubated with or without purified PARG enzyme (±PARG) for 30 min at 37 °C then immunoblotted with anti-PARP1 (upper panel) and then with anti-histone H3 (lower panel) as loading control. d Quantitative analysis of western blot of b, where expression of PARP1 levels in DMSO treated was normalized to 1. […]"}, "[1]": {"settings": "chromatin fraction incubated with purified PARG (+)"}},
  "note": "Where “and” joins values, the source holds several entries; their conditions need not be identical. Identical values can stand only once.",
  "data": [
    {"smiles": "Cn1c(=S)c2[nH]c(SCCN3CCOCC3)nc2n(C)c1=O", "note": "[JA2131]", "values": [
      {"measurement": "inhibition of PARP1 activation (PAR synthesis)", "setting": "hPARP1", "value": "did not inhibit PARP1 activation up to 100 μM"},
      {"measurement": "HMW PARP1", "setting": "PC3 cells; [1]", "value": "0.2746 and 0.8185 and 0.3259"},
      {"measurement": "LMW PARP1", "setting": "PC3 cells; [1]", "value": "1.147 and 1.092 (2×)"},
      {"measurement": "HMW PARP1", "setting": "PC3 cells; without added purified PARG", "value": "0.6751 and 1.387 and 4.419"},
      {"measurement": "LMW PARP1", "setting": "PC3 cells; without added purified PARG", "value": "0.7041 and 0.9592 (2×)"}
    ]}
  ]
}
